Laboratory results from patent publication US20230114241A1, “METHODS OF TREATING EPILEPSY USING THE SAME” (Trevena, Inc., priority 2019, published 2023).

molecular target: human sphingosine-1-phosphate receptor 1 (S1P1) (Homo sapiens, UniProt P21453); assay: Inhibition of cAMP production (HTRF cAMP HiRange), S1P1 CHO-K1 cells; format: cell-based; details: inhibition of cAMP production, S1P1; read-out: hS1P1 CAMP pEC50 (converted)
Procedure: Stable clonal Chinese hamster ovary K1 (CHO-K1) cells co-expressing EA-β-arrestin2 and the human sphingosine-1-phosphate receptor 1 (NM_001400, S1P1) with a C-terminal Prolink™ tag were purchased from DiscoverX corporation (Cat #: 93-0207C2).
Cell lines were cultured in AssayComplete™ Media 6 (DiscoverX Corporation, Cat #: 920018GF2) at 37° C. and 5% CO2 in a humidified CO2 and temperature-controlled incubator. To begin assay plating, cells were washed with Dulbecco's phosphate buffered saline (CellGro, Cat #: 21-031-CV) and lifted from the culturing flask by incubation (37° C., 5 min) with CellStripper (Cellgro, Cat #: 25-056-CI). […] Plated cells were incubated overnight at 37° C. and 5% CO2 in a humidified CO2 and temperature-controlled incubator.
Agonist-promoted G-protein responses were determined by measuring changes in intracellular cAMP using the HTRF® cAMP HiRange kit (CisBio, Cat #: 62AM6PEJ) based on time-resolved fluorescence resonance energy transfer (TR-FRET) technology. […] Following a 30-minute incubation at 37° C. and 5% CO2 in a humidified CO2 and temperature-controlled incubator, the components of the cAMP HiRange kit were added as per the manufacturer's instructions. After an hour incubation at room temperature, plates were analyzed by a BMG PheraStar microplate reader.
These values are normalized to fingolimod, a known agonist of the sphingosine-1-phosphate 1 receptor.

Sequence of human sphingosine-1-phosphate receptor 1 (S1P1) (P21453 whole entry): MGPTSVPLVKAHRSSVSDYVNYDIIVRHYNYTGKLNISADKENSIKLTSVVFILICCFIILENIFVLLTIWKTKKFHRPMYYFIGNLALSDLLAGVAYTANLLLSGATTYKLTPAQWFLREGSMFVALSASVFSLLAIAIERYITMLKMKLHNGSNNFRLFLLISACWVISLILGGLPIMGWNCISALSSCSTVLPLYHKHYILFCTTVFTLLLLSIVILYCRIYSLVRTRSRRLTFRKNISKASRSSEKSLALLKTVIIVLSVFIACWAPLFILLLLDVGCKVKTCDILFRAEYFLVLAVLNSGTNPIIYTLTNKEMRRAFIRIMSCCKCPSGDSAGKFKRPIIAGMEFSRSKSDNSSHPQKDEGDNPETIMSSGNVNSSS

Row | EC50 [nM] | Compound
1 | > 316 | Cc1ccncc1-c1noc(-c2ccc3c(c2)nnn3C2CCOCC2)n1 [Compound 439, 5-[3-(4-methylpyridin-3-yl)-1,2,4-oxadiazol-5-yl]-1-(oxan-4-yl)-1H-1,2,3-benzotriazole]
2 | > 316 | CC(C)(CO)n1nnc2cc(-c3noc(-c4cnccc4C(F)(F)F)n3)ccc21 [Compound 644, 2-methyl-2-(5-(5-(4-(trifluoro-methyl)pyridin-3-yl)-1,2,4-oxadiazol-3-yl)-1H-benzo[d][1,2,3]triazol-1-yl)propan-1-ol]
3 | < 316 | COc1cnccc1-c1nc(-c2ccc3c(c2)nnn3C(C)C)no1 [Compound 606, 3-(1-isopropyl-1H-benzo[d][1,2,3]triazol-5-yl)-5-(3-methoxy-pyridin-4-yl)-1,2,4-oxadiazole]
4 | < 316 | COc1ncccc1-c1nc(-c2ccc3c(c2)nnn3C(C)C)no1 [Compound 607, 3-(1-isopropyl-1H-benzo[d][1,2,3]triazol-5-yl)-5-(2-methoxy-pyridin-3-yl)-1,2,4-oxadiazole]

Continued, molecule first:

Row | Compound | EC50 [nM]
5 | CCc1ccccc1-c1nc(-c2ccc3c(c2)nnn3C(C)(C)CO)no1 [Compound 624, 2-(5-(5-(2-ethyl-phenyl)-1,2,4-oxadiazol-3-yl)-1H-benzo[d][1,2,3]triazol-1-yl)-2-methyl-propan-1-ol] | > 316
6 | CCC1(CC)CC(=O)c2cc(-c3nc(-c4ccc5sc(N)nc5c4)no3)ccc2O1 [Compound 446, 6-(3-(2-aminobenzo [d]thiazol-5-yl)-1,2,4-oxadiazol-5-yl)-2,2-diethylchroman-4-one] | > 316
7 | CC(C)(CO)n1nnc2cc(-c3noc(-c4cccnc4F)n3)ccc21 [Compound 643, 2-(5-(5-(2-fluoro-pyridin-3-yl)-1,2,4-oxadiazol-3-yl)-1H-benzo[d][1,2,3]triazol-1-yl)-2-methylpropan-1-ol] | > 316
8 | Cc1ccccc1-c1coc(-c2ccc3c(c2)nnn3C(C)C)n1 [Compound 433, 5-[4-(2-methylphenyl)-1,3-oxazol-2-yl]-1-(propan-2-yl)-1H-1,2,3-benzotriazole] | < 316
9 | Cc1cccc2nc(-c3ccc4c(c3)nnn4C(C)C)oc12 [Compound 421, 2-(1-isopropyl-1H-benzo[d][1,2,3]triazol-5-yl)-7-methyl-benzo[d]oxazole] | > 316
10 | C=CCNc1ccc(-c2ccc(-c3ccc4c(c3)nnn4C(C)C)cc2)cc1C#N [Compound 508, 4-(allylamino)-4′-(1-isopropyl-1H-benzo[d][1,2,3]triazol-5-yl)-[1,1′-biphenyl]-3-carbonitrile] | > 316

same assay, conditions: inhibition of cAMP production; potency; read-out: hS1P1 CAMP pEC50 (converted)

Row | EC50 [nM] | Compound
11 | > 316 | COc1cncc(-c2nc(-c3ccc4c(c3)nnn4C(C)C)no2)c1 [Compound 272, 3-(1-isopropyl-1H-benzo[d][1,2,3]triazol-5-yl)-5-(5-methoxy-pyridin-3-yl)-1,2,4-oxadiazole]
12 | > 316 | CC(C)n1nnc2cc(-c3noc(-c4ccc(C5CCCCC5)cc4)n3)ccc21 [Compound 290, 5-(4-cyclohexylphenyl)-3-(1-isopropyl-1H-benzo[d][1,2,3]triazol-5-yl)-1,2,4-oxadiazole]
13 | > 316 | Cc1ccccc1-c1noc(-c2ccc3c(c2)nnn3C2CCCCC2)n1 [Compound 245, 1-cyclohexyl-5-[3-(2-methylphenyl)-1,2,4-oxadiazol-5-yl]-1H-1,2,3-benzotriazole]
14 | < 316 | CC(C)n1nnc2cc(-c3nc(-c4ccncc4)no3)ccc21 [Compound 244, 1-(propan-2-yl)-5-[3-(pyridin-4-yl)-1,2,4-oxadiazol-5-yl]-1H-1,2,3-benzotriazole]
15 | > 316 | Cc1ccccc1-c1noc(-c2ccc3c(c2)nnn3C2CCOCC2)n1 [Compound 95, 5-[3-(2-methylphenyl)-1,2,4-oxadiazol-5-yl]-1-(oxan-4-yl)-1H-1,2,3-benzotriazole]
16 | > 316 | CCCn1nnc2cc(-c3nc(-c4cc(C)cc(C)c4)no3)ccc21 [Compound 76, 5-[3-(3,5-dimethyl-phenyl)-1,2,4-oxadiazol-5-yl]-1-propyl-1H-1,2,3-benzotriazole]
17 | > 316 | COc1cccc(-c2nc(-c3ccc4c(c3)nnn4C(C)C)no2)c1 [Compound 299, 3-(1-isopropylbenzo-triazol-5-yl)-5-(3-methoxyphenyl)-1,2,4-oxadiazole]
18 | > 316 | Brc1ccccc1-c1nc(-c2ccc3c(c2)nnn3CC2CC2)no1 [Compound 98, 5-(2-bromophenyl)-3-(1-(cyclopropylmethyl)-1H-benzo[d][1,2,3]triazol-5-yl)-1,2,4-oxadiazole]
19 | > 316 | FC(F)(F)c1cc(Br)ccc1-c1noc(-c2ccc3c(c2)nnn3C2CCCC2)n1 [Compound 114, 5-{3-[4-bromo-2-(trifluoromethyl)phenyl]-1,2,4-oxadiazol-5-yl}-1-cyclopentyl-1H-1,2,3-benzotriazole]
20 | > 316 | Cc1ccc(-c2noc(-c3ccc4c(c3)nnn4C3CC3)n2)cn1 [Compound 87, 1-cyclopropyl-5-[3-(6-methylpyridin-3-yl)-1,2,4-oxadiazol-5-yl]-1H-1,2,3-benzotriazole]
21 | > 316 | Cc1ccccc1-c1noc(-c2ccc3nnn(C(C)C)c3c2)n1 [Compound 308, 6-[3-(2-methylphenyl)-1,2,4-oxadiazol-5-yl]-1-(propan-2-yl)-1H-1,2,3-benzotriazole]
22 | > 316 | Cc1cc(-c2nc(-c3ccc4c(c3)nnn4C(C)C)no2)ccn1 [Compound 86, 3-(1-isopropyl-1H-benzo[d][1,2,3]triazol-5-yl)-5-(2-methyl-pyridin-4-yl)-1,2,4-oxadiazole]
23 | > 316 | CC(C)n1nnc2cc(-c3noc(C4CCOCC4)n3)ccc21 [Compound 89, 5-[5-(oxan-4-yl)-1,2,4-oxadiazol-3-yl]-1-(propan-2-yl)-1H-1,2,3-benzotriazole]

The remaining lines, values behind:

Row | Compound | EC50 [nM]
24 | CC(C)n1ncc2cc(-c3nc(-c4ccccc4OC(F)(F)F)no3)ccc21 [Compound 331, 5-(1-isopropyl-1H-indazol-5-yl)-3-(2-(trifluoro-methoxy)phenyl)-1,2,4-oxadiazole] | < 316
25 | CCC1(CC)CC(=O)c2cc(-c3nnc(-c4ccc5c(c4)nnn5C(C)C)s3)ccc2O1 [Compound 67, 2,2-diethyl-6-(5-(1-isopropyl-1H-benzo[d][1,2,3]triazol-5-yl)-1,3,4-thiadiazol-2-yl)chroman-4-one] | > 316
26 | CC(C)n1ncc2cc(-c3nc(-c4ccccc4Cl)no3)ccc21 [Compound 330, 3-(2-chlorophenyl)-5-(1-isopropyl-1H-indazol-5-yl)-1,2,4-oxadiazole] | < 316
27 | N#Cc1cc(-c2nc(-c3ccc4c(c3)CCC(=O)N4)no2)ccc1NCC(F)F [Compound 344, 2-[(2,2-difluoroethyl)amino]-5-[3-(2-oxo-1,2,3,4-tetrahydroquinolin-6-yl)-1,2,4-oxadiazol-5-yl]benzonitrile] | < 316
28 | CC(C)n1nnc2cc(-c3nc(Cc4ccccc4)no3)ccc21 [Compound 88, 5-(3-benzyl-1,2,4-oxadiazol-5-yl)-1-(propan-2-yl)-1H-1,2,3-benzotriazole] | > 316
29 | COc1ccc(-c2nc(-c3ccc4c(c3)nnn4C(C)C)no2)c(C)c1 [Compound 90, 3-(1-isopropyl-1H-benzo[d][1,2,3]triazol-5-yl)-5-(4-methoxy-2-methylphenyl)-1,2,4-oxadiazole] | > 316
30 | CCC1(CC)CC(=O)c2cc(-c3nc(-c4ccccn4)no3)ccc2O1 [Compound 111, 2,2-diethyl-6-[3-(2-pyridyl)-1,2,4-oxadiazol-5-yl]chroman-4-one] | > 316
31 | CCC1(CC)CC(=O)c2cc(-c3nsc(-c4ccc5c(c4)nnn5C(C)C)n3)ccc2O1 [Compound 143, 2,2-diethyl-6-(5-(1-isopropyl-1H-benzo[d][1,2,3]triazol-5-yl)-1,2,4-thiadiazol-3-yl)chroman-4-one] | > 316
32 | CC(C)n1ccc2cc(-c3nc(-c4ccccc4Cl)no3)ccc21 [Compound 320, 3-(2-chlorophenyl)-5-(1-isopropyl-1H-indol-5-yl)-1,2,4-oxadiazole] | < 316
33 | CCC1(CC)CC(=O)c2cc(-c3nc(-c4ccc(NC(C)=O)cc4)no3)ccc2O1 [Compound 209, N-(4-(5-(2,2-diethyl-4-oxochroman-6-yl)-1,2,4-oxadiazol-3-yl)phenyl)acetamide] | < 316
34 | CC(C)n1nnc2cc(C(=O)Nc3noc4ccccc34)ccc21 [Compound 181, N-(benzo[d]isoxazol-3-yl)-1-isopropyl-1H-benzo[d][1,2,3]triazole-5-carboxamide] | > 316
35 | COc1cccc(-c2cnc(-c3ccc4c(c3)nnn4C(C)C)s2)c1 [Compound 108, 2-(1-isopropyl-1H-benzo[d][1,2,3]triazol-5-yl)-5-(3-methoxy-phenyl)thiazole] | < 316
36 | CC(C)n1nnc2cc(-c3nnc(-c4ccccc4O)s3)ccc21 [Compound 70, 2-{5-[1-(propan-2-yl)-1H-1,2,3-benzotriazol-5-yl]-1,3,4-thiadiazol-2-yl}phenol] | < 316
37 | Brc1ccccc1-c1noc(-c2ccc3[nH]nnc3c2)n1 [Compound 190, 5-[3-(2-bromophenyl)-1,2,4-oxadiazol-5-yl]-1H-1,2,3-benzotriazole] | > 316
